# Data from patent US20240366555A1, “SELECTIVE MTORC2 INHIBITOR AND USES THEREOF” (ALIAD BIOPHARMA, priority 2021, published 2024).
# How the values were obtained:
# mTORC2 = mTORC2 (Homo sapiens, UniProt P42345); test: In vitro mTORC2 kinase assay (GST-Akt Ser473 phosphorylation, immunoblot); assay type: biochemical; set-up: mTORC was isolated by co-immunoprecipitation using Flag antibody; made in house; host or cells: HEK 293T transfected with Flag-mLST8; conditions: for reduction of GST-Akt Ser473 phosphorylation by mTORC2: FIG. 6a
# Description: After introducing Flag-mLST8 into a human cell line 293T, mTORC was isolated by co-immunoprecipitation using Flag antibody. In the in vitro mTORC2 kinase assay, the activity of the isolated mTORC2 was evaluated by measuring phosphorylation of GST-Akt Ser473, which is a selective substrate of mTORC2 by immunoblot analysis. In the control group in which Flag-mLST8 was not introduced, GST-Akt Ser473 phosphorylation was almost not measured. […] Therefore, it was judged that GST-Akt Ser473 phosphorylation measured in the in vitro mTORC2 kinase assay was generated by mTORC2. In order to evaluate the inhibitory effect of norathyriol and athyriol on mTORC2 activity, norathyriol or athyriol was pretreated for 15 minutes, and then in vitro mTORC2 kinase assay was carried out.
# More specifically, the HEK 293T cells were cultured in a DMEM culture medium in which 10% heat inactivated FBS+1× Glutamax was added. 8×10^5 HEK 293T cells were seeded in a 100 mm culture dish, and then they were cultured for 1 day. After mixing 42 μl Lipofectamine, 21 μl plus reagent, and 21 μg Flag-mLST8 plasmid DNA to 1 ml OPTI-MEM, it was shaken at a room temperature for 25 minutes to prepare a transfection DNA mixture. The transfection DNA mixture was slowly treated on the cells drop by drop, and after culturing for 5 hours, the culture medium was replaced with a new culture medium. After additional culturing for 48 hours, the cells were […] with CHAPS buffer (50 mM HEPES (pH7.4), 100 mM NaCl, 2 mM EDTA, 0.3% CHAPS, 10 mM sodium pyrophosphate, 10 mM sodium β-glycerophosphate, 1 mM PMSF, 1 μg/ml leupeptin, 1 μg/ml pepstatin A, 10 nM aprotinin, 1 mM Na3VO4, 10 nM calyculin A), and centrifuged at 4° C. at 13,000 rpm for 10 minutes to obtain the supernatant and acquire cell lysate. The protein concentration of the cell lysate was determined with BCA protein assay kit (Thermo Fisher Scientific). After adding anti-Flag M2 affinity gel (50% slurry, Sigma) of 30 μl to the cell lysate of 1 mg, it was shaken at 4° C. for 3 hours. After that, affinity gel was washed with CHAPS buffer 3 times and kinase buffer (50 mM HEPES (pH7.5), 2 mM DTT, 10 mM MnCl2, 10 mM MgCl2) for washing once. After adding kinase buffer [-substrate-ATP] […] After that, kinase buffer (50 mM HEPES (pH7.5), 2 mM DTT, 10 mM MgCl2, 10 mM MnCl2, 1 mM ATP, 500 ng GST-AKT, 10 nM calyculin A) of 10 μl was added and shaken at 30° C. for 45 minutes to progress a kinase reaction. […] Ser473 phosphorylation of GST-AKT, which is a substrate of mTORC2, was measured by performing immunoblot analysis using AKT antibody (#4691, Cell signaling) and phospho Ser473 AKT antibody (#4060, Cell signalig). In order to measure the mTORC2 activity inhibitory effect by the compound, both the kinase buffer [-substrate-ATP] and the kinase buffer included the compound.
# mTORC2 signaling pathway = test: Immunoblot analysis of mTORC2 signaling pathway in A549 cells; assay type: cell-based, human
# Description: In order to investigate the effect on the mTORC2 signaling pathway of norathyriol in a culture cell model, after treating norathyriol to a human cell line A549, Akt Ser473 phosphorylation, Akt Thr308 phosphorylation, and NDRG1 Thr346 phosphorylation were measured by immunoblot analysis over time. The A549 cells were cultured in RPMI culture medium in which 10% heat inactivated FBS and 1× GlutaMax were added. After seeding the A549 cells of 2×10^5 in a 60 mm culture dish and culturing them for 1 day, norathyriol was treated to the cells. The cells were washed with ice-cold 1× PBS twice, and then the cells were […] using RIPA buffer (50 mM Tris-HCl (pH7.4), 150 mM NaCl, 0.25% sodium deoxycholate, 1% NP-40, 1% SDS, 1 mM EDTA, 1 mM EGTA, 1 mM sodium β-glycerophosphate, 1 mM PMSF, 1 μg/ml leupeptin, 1 μg/ml pepstatin A, 10 nM aprotinin, 1 mM Na3VO4, 50 mM NaF, 10 nM calyculin A) on ice. After removing undissolved substances by centrifuging at 4° C. at 15,000× g for 15 minutes, the supernatant was recovered to determine the protein concentration with BCA protein assay kit (Thermo Fisher Scientific). 2× SDS-PAGE sample buffer in the same volume was added to the supernatant and boiled for 5 minutes, and then it was developed under a reducing condition by SDS-polyacrylamide gel electrophoresis. The developed protein was transferred into a PVDF membrane by an electro blotting method. The membrane was blocked in TBST containing 5% skim milk (100 mM Tris-Cl, pH 8.8, 150 mM NaCl, 0.1% Tween-20) at a room temperature for 1 hour, and then it was reacted with a primary antibody. After washing with TBST for 10 minutes 3 times, it was reacted with a secondary antibody conjugated with HRP. After washing with TBST for 10 minutes 3 times, it was reacted with an enhanced chemiluminescence (ECL) reagent to obtain an image of the protein combined with the secondary antibody. For the immunoblot analysis, AKT antibody (#4691, Cell Signaling), phospho-Ser473 AKT antibody (#4060, Cell Signaling), phospho-Thr308 AKT antibody (#2965, Cell Signaling), p70 S6 kinase antibody (#9202, Cell Signaling), and phospho-Thr389 p70 S6 kinase antibody (#9205, Cell Signaling) were used.
# mTORC2 activates SGK1, and SGK1 phosphorylates NDRG1 Thr346. NDRG1 phosphorylated at Thr346 is removed by a ubiquitination-proteasome system. Accordingly, when the mTORC2 activity is inhibited, NDRG1 Thr346 phosphorylation is reduced, whereas NDRG1 protein increases.
SMILES,reduction of GST-Akt Ser473 phosphorylation by mTORC2 (mTORC2; 5 μM) [%],reduction of GST-Akt Ser473 phosphorylation by mTORC2 (mTORC2; 40 μM) [%],"inhibition at 40 µM (mTORC2; 40 μM, FIG. 6b) [%]",IC50 (mTORC2; in vitro mTORC2 kinase assay) [µM],Akt Ser473 phosphorylation (mTORC2 activity indicator) (mTORC2 signaling pathway; FIG. 7a),Akt Thr308 phosphorylation (PDK1 activity indicator) (mTORC2 signaling pathway; FIG. 7a),NDRG1 protein (mTORC2 signaling pathway; FIG. 7b),ratio of NDRG1 Thr346 phosphorylation to NDRG1 protein (mTORC2 signaling pathway; FIG. 7b),"inhibition at 20 µM (mTORC2; 20 μM, FIG. 6b) [%]"
"O=c1c2cc(O)c(O)cc2oc2cc(O)cc(O)c12 [norathyriol, 1,3,6,7-tetrahydroxy-9H-xanthen-9-one]",≥ 20,50,46,40,reduced,not reduced and rather increased after 24 hours,increased significantly,reduced,
"COc1cc(O)c2c(=O)c3cc(O)c(O)cc3oc2c1 [athyriol, 1,6,7-Trihydroxy-3-methoxy-9H-xanthen-9-on]",,,67,,,,,,59
